Here are results for 15 compounds from ChEMBL document CHEMBL3621041, “Optimization of a Novel Binding Motif to (E)-3-(3,5-Difluoro-4-((1R,3R)-2-(2-fluoro-2-methylpropyl)-3-methyl-2,3,4,9-tetrahydro-1H-pyrido[3,4-b]indol-1-yl)phenyl)acrylic Acid (AZD9496), a Potent and Orally Bioavailable Selective Estrogen Receptor Downregulator and Antagonist” (J Med Chem, 2015).

Converted amounts (≈) assume the structure as drawn. The source made the active and inactive calls. No cut-off for these calls is given here. Bounds are passed on as bounds.

One may read the logD as the decadic logarithm of the distribution of all forms, ionised or not, between an organic phase and buffer at a given pH. What is called fraction unbound is free concentration divided by total concentration. As usually defined, the bioavailability is dose-corrected exposure relative to a reference, in per cent.

The target of one data set is T1, Progesterone receptor (Homo sapiens, UniProt P06401).
T1 sequence (P06401 whole entry): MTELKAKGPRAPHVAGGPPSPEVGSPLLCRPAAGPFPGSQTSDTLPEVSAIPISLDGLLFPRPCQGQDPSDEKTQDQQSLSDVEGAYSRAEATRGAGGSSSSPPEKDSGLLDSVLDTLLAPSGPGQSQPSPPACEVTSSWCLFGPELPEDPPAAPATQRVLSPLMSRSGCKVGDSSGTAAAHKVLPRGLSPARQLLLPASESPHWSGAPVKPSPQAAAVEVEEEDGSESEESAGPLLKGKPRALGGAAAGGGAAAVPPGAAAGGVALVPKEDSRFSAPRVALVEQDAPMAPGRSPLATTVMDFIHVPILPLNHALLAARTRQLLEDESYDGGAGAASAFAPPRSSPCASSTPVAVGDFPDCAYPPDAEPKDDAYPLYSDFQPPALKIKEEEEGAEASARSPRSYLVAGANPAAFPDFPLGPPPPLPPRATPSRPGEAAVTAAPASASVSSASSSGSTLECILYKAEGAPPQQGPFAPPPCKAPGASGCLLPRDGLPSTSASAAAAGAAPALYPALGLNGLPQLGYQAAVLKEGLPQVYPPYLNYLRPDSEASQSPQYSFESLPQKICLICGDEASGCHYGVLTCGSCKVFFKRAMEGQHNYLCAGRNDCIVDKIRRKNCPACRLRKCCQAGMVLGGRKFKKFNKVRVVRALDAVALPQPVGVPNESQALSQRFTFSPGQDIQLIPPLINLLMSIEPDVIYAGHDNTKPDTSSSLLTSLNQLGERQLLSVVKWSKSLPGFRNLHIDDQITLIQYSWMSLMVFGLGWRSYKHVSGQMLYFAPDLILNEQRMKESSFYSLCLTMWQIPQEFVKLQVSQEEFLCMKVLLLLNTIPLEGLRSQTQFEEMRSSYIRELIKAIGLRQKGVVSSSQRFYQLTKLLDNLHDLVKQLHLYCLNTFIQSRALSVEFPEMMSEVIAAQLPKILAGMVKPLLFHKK
Nature of the data set: Agonist activity at progesterone receptor in human MCF7 cells. In kind it is cell-based.

Data set [1] in a line: Lipophilicity, log D of the compound at pH 7.4. The conditions noted are these: buffer. It counts as physicochemical.
The nature of data set [2]: Thermodynamic solubility of the compound in 0.1 M phosphate buffer at pH 7.4 after 24 hrs. It counts as physicochemical. The conditions noted are these: read-out: Therm_solubility.
Data set [3] can be described thus: Fraction unbound in Han Wistar rat 10% plasma by equilibrium dialysis. In kind it is ADME, cell-free.
A short description of data set [4]: Fraction unbound in human 10% plasma by equilibrium dialysis. It counts as ADME, cell-free. Background: Equilibrium dialysis compares concentrations on both sides of a semipermeable membrane.
Data set [5] can be described thus: Intrinsic clearance in rat cryopreserved hepatocytes assessed per 10^6 cells. The conditions noted are these: read-out: CLH. In kind it is ADME, cell-based, Hepatocyte.
Data set [6] in a line: Intrinsic clearance in human cryopreserved hepatocytes assessed per 10^6 cells. It counts as ADME, cell-based, Hepatocyte. The conditions noted are these: read-out: CLH.
A short description of data set [7]: Volume of distribution at steady state in Han Wistar rat at 2 umol/kg, iv and 5 umol/kg, po. In kind it is ADME, organism-based. The conditions noted are these: in vivo, read-out: Vdss.
Data set [8] is described as follows: Clearance in Han Wistar rat at 2 umol/kg, iv and 5 umol/kg, po. It counts as ADME, organism-based. The conditions noted are these: in vivo.
The nature of data set [9]: Oral bioavailability in Han Wistar rat at 5 umol/kg. The conditions noted are these: in vivo. It counts as ADME, organism-based.
In data set [10] the target is T2, Estrogen receptor (Homo sapiens, UniProt P03372).
T2 sequence (P03372 whole entry): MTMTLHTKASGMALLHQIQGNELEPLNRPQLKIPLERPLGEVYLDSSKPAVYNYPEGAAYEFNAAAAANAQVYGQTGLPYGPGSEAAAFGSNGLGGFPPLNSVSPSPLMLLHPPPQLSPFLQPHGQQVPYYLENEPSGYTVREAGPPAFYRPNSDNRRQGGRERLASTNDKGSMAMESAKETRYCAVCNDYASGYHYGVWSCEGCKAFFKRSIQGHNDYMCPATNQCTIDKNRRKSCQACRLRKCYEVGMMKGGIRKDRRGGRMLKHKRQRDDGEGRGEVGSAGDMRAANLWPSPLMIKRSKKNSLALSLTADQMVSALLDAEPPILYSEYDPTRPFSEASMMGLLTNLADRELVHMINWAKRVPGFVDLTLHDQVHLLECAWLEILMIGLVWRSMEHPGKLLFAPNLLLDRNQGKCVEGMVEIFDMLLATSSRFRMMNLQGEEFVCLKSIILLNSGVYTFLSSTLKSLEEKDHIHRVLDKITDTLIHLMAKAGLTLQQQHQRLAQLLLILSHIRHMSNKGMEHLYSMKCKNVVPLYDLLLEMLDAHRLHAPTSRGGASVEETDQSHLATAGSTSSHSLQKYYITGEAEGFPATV
Description: Binding affinity to ERalpha receptor (unknown origin)

Data set [11] concerns the target T2, Estrogen receptor. This is another data set of the same source.
Description: Antagonist activity at ERalpha receptor in human MCF7 cells
The test system of the next data set is MCF7. Nature of the data set: cells. The conditions noted are these: Homo sapiens, MCF7, read-out: pIC50 (converted).
Data set [12] deals with T3, Progesterone receptor (Homo sapiens) (UniProt P06401).
T3 sequence (whole entry): T1 sequence (P06401 whole entry)
Nature of the data set: Agonist activity at progesterone receptor (unknown origin) at 100 uM.

Description for MCF7: Antiproliferative activity against human MCF7 cells

For the compound `C[C@@H]1Cc2c([nH]c3ccccc23)[C@@H](c2ccc(Cl)cc2)N1C[C@H](C)C(=O)O`, the IC50 was 12.9 nM on Progesterone receptor, 70.8 nM at Estrogen receptor [10], 30.2 nM against Estrogen receptor [11] and > 31600 nM in the data set on MCF7. The compound further yielded a logD in [1] of 2.8. The solubility thermodynamic at 24 h in [2] is 1440 µM (≈ 551 µg/mL). Besides, the figures for the fraction unbound in data set [3] and in [4] were 0.032 and 0.015, respectively. Further, the hepatocyte CLint in data set [5] is 82 µL/min/1e6 cells; in [6] it was 23 µL/min/1e6 cells. Also, the Vd in data set [7] was 0.34 L/kg. Besides, the clearance in [8] was found to be 14 mL/min/kg. In addition, in data set [9], the bioavailability amounted to 42%.
For `C[C@@H]1Cc2c([nH]c3ccccc23)[C@@H](c2ccc(/C=C/C(=O)O)cc2)N1CCO`, the IC50 on Progesterone receptor is > 100000 nM; against Estrogen receptor [10] it was 692 nM; against Estrogen receptor [11], 1320 nM; in the data set on MCF7, 813 nM.
`C[C@H](CO)CN1[C@H](c2ccc(/C=C/C(=O)O)cc2)c2[nH]c3ccccc3c2C[C@H]1C`: the IC50 is > 100000 nM at Progesterone receptor, 69.2 nM on Estrogen receptor [10], 46.8 nM against Estrogen receptor [11] and 22.4 nM in the data set with MCF7. In addition, in data set [1], the logD was 1.6. For the same compound, the solubility thermodynamic at 24 h in data set [2] was > 1400 µM. Besides, the figures for the fraction unbound in [3] and in data set [4] were 0.091 and 0.046, respectively. In addition, the hepatocyte CLint in [5] came out at 21 µL/min/1e6 cells; in [6] it was 26 µL/min/1e6 cells.
For the compound `C[C@@H]1Cc2c([nH]c3ccccc23)[C@@H](c2ccc(Cl)cc2)N1CCC(=O)O`, the IC50 was > 100000 nM at Progesterone receptor, 1780 nM on Estrogen receptor [10], 776 nM against Estrogen receptor [11] and > 25100 nM in the data set on MCF7. In data set [12], this compound came in with a percent agonist activity of 15%.
Regarding `C[C@@H]1Cc2c([nH]c3ccccc23)[C@@H](c2ccc(/C=C/C(=O)O)cc2)N1CC(C)(C)F`, the IC50 at Progesterone receptor was > 3160 nM; in the data set on MCF7, 0.324 nM.
Turning to `O=C(O)CCN1CCc2c([nH]c3ccccc23)C1c1ccc(Cl)cc1` (racemic), the IC50 at Progesterone receptor was > 31600 nM; on Estrogen receptor [10], 13800 nM; on Estrogen receptor [11], 3720 nM. In data set [1], this compound returned a logD of 1.6. Further, the solubility thermodynamic at 24 h in [2] is > 1600 µM. Besides, the fraction unbound in [3] was 0.072. The hepatocyte CLint in [5] was 29 µL/min/1e6 cells; in [6] it was 19 µL/min/1e6 cells. Besides, in data set [7], the Vd came out at 0.6 L/kg. Besides, the clearance in [8] stood at 4 mL/min/kg. This compound also had a bioavailability in [9] of 85%.
Turning to `CC/C(=C(\c1ccccc1)c1ccc(OCCN(C)C)cc1)c1ccccc1` [TAMOXIFEN], the IC50 with MCF7 was 57.5 nM.
Turning to `CC/C(=C(\c1ccc(O)cc1)c1ccc(/C=C/C(=O)O)cc1)c1ccccc1`, the IC50 at Progesterone receptor is > 31600 nM. For the same compound, in data set [12], the percent agonist activity result is “inactive”.
As to `C[C@@H]1Cc2c([nH]c3ccccc23)[C@@H](c2ccc(Cl)cc2)N1CCO`, the IC50 on Progesterone receptor is > 100000 nM; on Estrogen receptor [10], 39.8 nM; against Estrogen receptor [11] it was 85.1 nM; with MCF7 it was 13800 nM. The compound also came in with a percent agonist activity in data set [12] of 15%.
Take `CCC(=C(c1ccc(O)cc1)c1ccc(OCCN(C)C)cc1)c1ccccc1`: the IC50 at Progesterone receptor was > 100000 nM; in the data set with MCF7, 0.537 nM.
`CC/C(=C(\c1ccccc1)c1ccc(/C=C/C(=O)O)cc1)c1ccccc1`: the results for the IC50 on Progesterone receptor and in the data set with MCF7 were > 100000 nM and 295 nM, respectively. Further, in [12], the percent agonist activity result is “inactive”.
With `C[C@@H]1Cc2c([nH]c3ccc(O)cc23)[C@@H](c2ccc(Cl)cc2)N1CCO`, the IC50 is 33.1 nM at Progesterone receptor, 22.4 nM against Estrogen receptor [10], 43.7 nM at Estrogen receptor [11] and > 31600 nM in the data set with MCF7.
As for `CC(C)CN1[C@H](c2c(F)cc(/C=C/C(=O)O)cc2F)c2[nH]c3ccccc3c2C[C@H]1C`, the IC50 at Progesterone receptor was > 3160 nM; on Estrogen receptor [10] it was 0.708 nM; against Estrogen receptor [11], 0.417 nM; in the data set with MCF7, 0.229 nM.
As for `C[C@]12CC[C@@H]3c4ccc(O)cc4C[C@@H](CCCCCCCCC[S+]([O-])CCCC(F)(F)C(F)(F)F)[C@H]3[C@@H]1CC[C@@H]2O` (stereo partly specified) [FULVESTRANT], the IC50 is > 100000 nM at Progesterone receptor and 0.1 nM with MCF7.
As for `C[C@@H](CO)CN1[C@H](c2ccc(/C=C/C(=O)O)cc2)c2[nH]c3ccccc3c2C[C@H]1C`, the IC50 at Progesterone receptor is > 100000 nM; on Estrogen receptor [10], 97.7 nM; on Estrogen receptor [11], 45.7 nM.
